Laboratory results: paper PMC9298186, “Thiamine analogues as inhibitors of pyruvate dehydrogenase and discovery of a thiamine analogue with non-thiamine related antiplasmodial activity” (RSC Medicinal Chemistry, 2022)
Where two headings read alike, the source gives them in different places.

Experiments:
porcine PDHc E1 [1] = molecular target: T1, porcine PDHc E1 (Sus scrofa, UniProt F1SGH5+P29804); test: Porcine PDHc-E1 inhibition, DCPIP reduction assay; format: biochemical; details: for inhibition at 50 µM: read-out: Inhibition (%) of PDH E1; for inhibition at 100 µM: read-out: Inhibition (%) of PDH E1 at [TPP] = 100 μM
T1 sequence (P29804 31-390): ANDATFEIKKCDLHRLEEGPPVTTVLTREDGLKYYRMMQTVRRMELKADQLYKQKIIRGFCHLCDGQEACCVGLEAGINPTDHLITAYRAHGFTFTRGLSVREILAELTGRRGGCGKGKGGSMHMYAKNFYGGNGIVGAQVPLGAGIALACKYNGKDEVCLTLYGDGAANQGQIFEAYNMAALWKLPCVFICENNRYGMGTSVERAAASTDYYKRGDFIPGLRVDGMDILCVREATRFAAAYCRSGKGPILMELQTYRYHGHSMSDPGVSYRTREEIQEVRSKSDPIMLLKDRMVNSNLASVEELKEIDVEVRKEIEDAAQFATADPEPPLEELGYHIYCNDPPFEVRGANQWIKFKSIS
T1 sequence (F1SGH5 32-360): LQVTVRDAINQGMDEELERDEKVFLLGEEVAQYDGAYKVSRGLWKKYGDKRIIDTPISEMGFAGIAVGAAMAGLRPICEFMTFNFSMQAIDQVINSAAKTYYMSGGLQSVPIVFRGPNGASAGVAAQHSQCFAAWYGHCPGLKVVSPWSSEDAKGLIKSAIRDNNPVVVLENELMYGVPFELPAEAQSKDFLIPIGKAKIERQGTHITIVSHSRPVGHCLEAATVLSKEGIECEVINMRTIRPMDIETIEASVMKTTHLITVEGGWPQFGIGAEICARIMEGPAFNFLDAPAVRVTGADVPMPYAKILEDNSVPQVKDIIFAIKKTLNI

[2] = test system: Zymomonas mobilis pyruvate decarboxylase (zmPDC); parameters: method as in PMID 19082157; details: cited from earlier work
[3] = test system: P. falciparum 3D7 parasites expressing PfTPK-GFP; test: Antiplasmodial activity against parasites overexpressing PfTPK-GFP; format: cell-based, Plasmodium falciparum; details: versus mock and wild-type parasites; presence or absence of thiamine (2.97 μM)
[4] = test system: human foreskin fibroblast (HFF) cells; format: cell-based; details: for Cytotoxicity: human, 96 h; for Selectivity index: HFF cytotoxicity versus antiplasmodial IC50
Procedure: Cytotoxicity evaluation of selected compounds
Cytotoxicity testing of selected compounds was conducted using HFF cells (human foreskin fibroblasts) as described by Howieson et al. with some modifications.10 Briefly, the HFF cells were seeded in 96- […]
Cycloheximide (10 µM; a protein synthesis inhibitor) was used as a control to indicate complete inhibition of HFF cell proliferation. Plates were […]
A sample of the supernatant
(150 µL) was then carefully aspirated from each well and discarded. The plates were then stored at - 80 °C. SYBR-Safe assay was used to measure cell proliferation. Briefly, the plates were thawed, SYBR-Safe lysis solution (150 µL) was added to each well and mixed via pipetting to ensure the HFF cells were detached from the plate and lysed. The plates were then processed as described for the […]
Fig. S7. […] Data are averaged […]
from three independent experiments, each carried out in triplicate. Error bars represent SEM and, where not visible, are smaller than the symbols. […]
10Howieson, V.M.; Tran, E.; Hoegl, A.; Fam, H.L.; Fu, J.; Sivonen, K.; Li, X.X.; Auclair, K.; Saliba, K.J. Triazole substitution of a labile amide bond […]

[5] = test system: P. falciparum 3D7 (chloroquine-sensitive) strain; test: In vitro antiplasmodial activity assay (SYBR-Safe; malstat for 15); format: cell-based, Plasmodium falciparum; details: for IC50: Plasmodium falciparum; for Effect of changing folic acid concentration on parasite sensitivity: […] versus 220 μM folic acid in medium
porcine PDHc E1 [6] = molecular target: T1, porcine PDHc E1; test: Porcine PDHc-E1 inhibition, DCPIP reduction assay; format: biochemical; details: for IC50: [TPP] = 10 μM, mean ± SEM, read-out: IC50 PDH E1; for Ki: read-out: Ki PDH E1
P. falciparum = test system: P. falciparum; parameters: method as in earlier work; details: ChEMBL; read-out: IC50 against P. falciparum; cited from earlier work
[7] = molecular target: pig heart pyruvate dehydrogenase; parameters: method as in PMID 183746; details: read-out: KD for TPP in pig heart pyruvate dehydrogenase; cited from earlier work
[8] = 3D7, read-out: Antiplasmodial IC50, 2.97 μM thiamine
[9] = 3D7, read-out: Antiplasmodial IC50, 297 μM thiamine
[10] = 3D7, read-out: Antiplasmodial IC50, thiamine free
[11] = 3D7, medium with 2.97 μM thiamine, ± SEM, read-out: Antiplasmodial IC50, 2.97 μM thiamine
[12] = 3D7, medium with 297 μM thiamine, ± SEM, read-out: Antiplasmodial IC50, 297 μM thiamine
[13] = 3D7, thiamine-free medium, ± SEM, three independent experiments, read-out: Antiplasmodial IC50, thiamine free

| Compound | inhibition at 50 µM (porcine PDHc E1 [1]) | inhibition at 100 µM (porcine PDHc E1 [1]) | IC50 [5, 11] | IC50 [5, 12] | IC50 [5, 13] | other results |
| --- | --- | --- | --- | --- | --- | --- |
| Cc1ncc(Cn2cc(CCO)nn2)c(N)n1 [Compound 6, reference compound] | 60 ± 7% | 35 ± 6% | – | – | – | Binding to zmPDC, times weaker than TPP [2]: about 1000 times |
| Cc1ncc(Cn2cc(CCOP(=O)(O)OP(=O)(O)O)nn2)c(N)n1 [Compound 7] | – | – | – | – | – | Binding to zmPDC, times tighter than TPP [2]: about 10 000 times |
| Cc1ncc(Cn2cc(CCOC(=O)c3ccccc3)nn2)c(N)n1 [Compound 12a] | 72 ± 3% | 44 ± 4% | – | – | – | Effect of PfTPK overexpression on parasite sensitivity [3]: no effect; Cytotoxicity [4]: >200 µM; IC50 [5, 8]: 136 ± 18 µM; IC50 [5, 9]: > 200 µM; IC50 [5, 10]: 128 ± 13 µM; IC50 (porcine PDHc E1 [6]): 20 ± 3 µM; Ki (porcine PDHc E1 [6]): 100 ± 15 nM |
| Cc1ncc(Cn2cc(CCOC(=O)c3ccc(Cl)cc3)nn2)c(N)n1 [Compound 12b] | 81 ± 2% | 56 ± 3% | – | – | – | IC50 [5, 8]: 125 ± 22 µM; IC50 [5, 9]: 122 ± 6 µM; IC50 [5, 10]: 107 ± 16 µM |
| Cc1ncc(Cn2cc(CCOC(=O)c3cccc(Cl)c3)nn2)c(N)n1 [Compound 12c] | 72 ± 3% | 48 ± 3% | 62 ± 17 µM | 79 ± 5 µM | 63 ± 15 µM | Effect of PfTPK overexpression on parasite sensitivity [3]: no effect; Selectivity index [4]: >3.2; Cytotoxicity [4]: >200 µM |
| Cc1ncc(Cn2cc(CCOC(=O)c3ccccc3Cl)nn2)c(N)n1 [Compound 12d] | 61 ± 3% | 38 ± 3% | 347 ± 20 µM | 343 ± 33 µM | 339 ± 31 µM | melting point: 184 to 185 °C |
| Cc1ncc(Cn2cc(CCOC(=O)c3ccc(Br)cc3)nn2)c(N)n1 [Compound 12e] | 73 ± 2% | 46 ± 5% | 85 ± 4 µM | 82 ± 8 µM | 75 ± 6 µM | – |
| Cc1ncc(Cn2cc(CCOC(=O)c3ccc([N+](=O)[O-])cc3)nn2)c(N)n1 [Compound 12f] | 55 ± 5% | 40 ± 8% | > 25 µM | > 25 µM | > 25 µM | – |
| Cc1ncc(Cn2cc(CCOC(=O)c3cccc([N+](=O)[O-])c3)nn2)c(N)n1 [Compound 12g] | 56 ± 5% | 38 ± 5% | – | – | – | melting point: 188 to 189 °C; IC50 [5, 8]: 139 ± 9 µM; IC50 [5, 9]: 143 ± 10 µM; IC50 [5, 10]: 135 ± 15 µM; IC50 (porcine PDHc E1 [6]): 36 ± 4 µM; Ki (porcine PDHc E1 [6]): 182 ± 20 nM |
| Cc1ncc(Cn2cc(CCOc3ccc([N+](=O)[O-])cc3)nn2)c(N)n1 [Compound 13a] | 75 ± 3% | 53 ± 4% | > 200 µM | > 200 µM | 168 ± 26 µM | – |
| Cc1ncc(Cn2cc(CCO)nn2)c(NCc2ccc(Br)cc2)n1 [Compound 15] | 0% | – | 2.3 ± 0.1 µM | 2.7 ± 0.01 µM | 2.2 ± 0.2 µM | Effect of PfTPK overexpression on parasite sensitivity [3]: no effect; Selectivity index [4]: 45; Cytotoxicity [4]: 98 ± 7 µM; IC50 ([5]; 3D7, read-out: Antiplasmodial IC50 (text, thiamine concentration not specified)): ~2 µM; Effect of changing folic acid concentration on parasite sensitivity [5]: no difference; Inhibitory activity against porcine PDHc E1 (porcine PDHc E1 [6]): none |
| C=CCc1cnc(C)nc1NCc1ccccc1 [Compound 16] | – | – | – | – | – | IC50 (P. falciparum): 18.5 µM |
| Cc1ncc(C[n+]2csc(CCO[P@](=O)(O)OP(=O)(O)O)c2C)c(N)n1 [TPP, thiamine pyrophosphate] | – | – | – | – | – | Kd [7]: 50 ± 10 nM; Kd ([2]; read-out: KD of TPP, zmPDC): ~350 nM |
| Cc1ncc(C[n+]2csc(CCO)c2C)c(O)n1 [oxythiamine, reference compound] | – | – | – | – | – | Effect of PfTPK overexpression on parasite sensitivity [3]: increased the sensitivity |
| COc1ncnc(NS(=O)(=O)c2ccc(N)cc2)c1OC [sulfadoxine, reference compound] | – | – | – | – | – | Effect of changing folic acid concentration on parasite sensitivity [5]: diminished |
